According to US20250084041A1, “ANTIMICROBIAL COMPOUNDS AND METHODS” (Curza Global, LLC, priority 2021, published 2025):
Counter-ions that a name gives are not always drawn. Like-named read-outs stand apart in the source and are kept apart here.

Assays:
S. aureus (Sa) = experiment: Broth microdilution MIC, S. aureus; format: cell-based; settings: Staphylococcus aureus, read-out: Sa + bicarb 25 (MIC)
Procedure: (§1) A certified BSL-2 laboratory was used for testing. Compounds were evaluated using the broth microdilution minimum inhibitory concentration (MIC) and minimum bactericidal concentration (MBC) assays defined by Clinical and Laboratory Standards Institute (CLSI) in the M26-A guideline against S. aureus (Sa), E. coli (Ec), K. pneumoniae (Kp), A. baumannii (Ab), E. faecalis (Ef) and P. aeruginosa (Pa).
(§2) MICs were determined using the Clinical Laboratory and Standards Institute (CLSI) Broth Microdilution Method with slight modification. Clinical and Laboratory Standards Institute (2012). “Methods for dilution antimicrobial susceptibility tests for bacteria that grow aerobically; approved standard, 9th ed. M07-A9. Clinical and Laboratory Standards Institute, Wayne, PA.” Serial two-fold dilutions of compounds are prepared in sterile clear round-bottom 96-well plates.
(§3) To prepare microdilution trays, two-fold dilutions of antimicrobial agent are prepared in growth medium: Cation-Adjusted Mueller-Hinton Broth (CAMHB), or CAMHB supplemented with sodium bicarbonate (25 mM final concentration prepared from a 1.0 M stock solution) or CAMHB supplemented with heat inactivated human serum (Fisher Cat. #BP2657100) 0-50% by adding 200 μL of the highest concentration to be tested (64 μg/mL, for example) in row A, mixing and transferring 100 μL from row A to 100 μL growth medium in row B, then repeating the mixing and transferring through row H of the 96-well plate, discarding the excess 100 μL remaining. This slight modification to the CLSI protocol enables evaluation of MICs for 3 compounds per plate in triplicate, albeit with only 8 compound dilutions (CLSI protocol enables 2 compounds in triplicate with 10 dilutions). Bacterial suspensions are added to a final concentration of 5×10^4 CFU/well by adding 5 μL of a 1:10 dilution of a 0.5 McFarland suspension (1×10^8 CFU/mL) for each bacterium evaluated. Bacterial suspensions were prepared using the growth method described by CLSI. Well-isolated colonies (3-5 from an agar plate) were selected using a sterile loop and used to inoculate a tube containing 4 mL of CAMHB. The cultures are incubated at 35±2° C. until it achieves or exceeds the turbidity of the 0.5 McFarland standard, determined by measuring A600nm (usually two to six hours). When growth exceeds a 0.5 McFarland standard, the turbidity is adjusted with broth to be equivalent to a 0.5 McFarland standard.

E. coli (Ec) = experiment: Broth microdilution MIC, E. coli; format: cell-based; settings: Escherichia coli, read-out: E. coli + bicarb 25 (MIC)
Procedure: as §1, §2, §3

P. aeruginosa (Pa) = experiment: Broth microdilution MIC, P. aeruginosa; format: cell-based; settings: Pseudomonas aeruginosa, read-out: Pa + bicarb 25 (MIC)
Procedure: as §1, §2, §3

A. baumannii (Ab) = experiment: Broth microdilution MIC, A. baumannii; format: cell-based; settings: Acinetobacter baumannii, read-out: Ab + bicarb 25 (MIC)
Procedure: as §1, §2, §3

E. faecalis (Ef) = experiment: Broth microdilution MIC, E. faecalis; format: cell-based; settings: Enterococcus faecalis, read-out: Ef + bicarb 25 (MIC)
Procedure: as §1, §2, §3

E. coli S30 extract = experiment: E. coli S30 extract: inhibition of bacterial protein synthesis (luciferase); format: biochemical; settings: 37° C. 1 hour
Procedure: E. coli S30 extract: Inhibition of bacterial protein synthesis was determined using the E. coli S30 Extract System for Circular DNA (Promega catalog #L-2010) and Luciferase Assay Reagent (Promega catalog #E1500) with slight modifications to a published protocol. Fyfe, C., Sutcliffe, J. A. and Grossman, T. H. (2012) “Development and characterization of a Pseudomonas aeruginosa in vitro coupled transcription-translation assay system for evaluation of translation inhibitors” J. Microbiol. Methods 90(3), 256-261.
Compounds were serial diluted in 0.5 mL microcentrifuge tubes by mixing and transferring 50 μL from the highest concentration to 50 μL of water, mixing and transferring 50 μL of this 2-fold dilution to 50 μL of water. This mixing and transferring was repeated so that there are a total of 8 tubes with serial dilutions of compound at 10× the desired screening concentration that are ultimately diluted to 1× by the addition of S30 luciferase synthesis mixture. Serial dilutions of compounds were added (2 μL) to wells in a black round bottom 96-well plate. Water (2 μL) was used as a “no inhibitor” control in 4 wells/plate. No DNA control reaction mixture (20 μL; see below) was used as a control in 4 wells/plate for background luminescence. S30 luciferase synthesis mixture (18 μL; see below) was added to wells with compounds or water mixture and incubated at 37° C. for 1 hour. Reactions were stopped by transferring to 4° C. refrigerator for 5 minutes then 25 μL of luciferase activity mix was added. Luminescence was measured using a BioTek Synergy HTX plate reader. % Inhibition was determined relative to no inhibitor controls.
• 445 μL S30 extract, circular • 712 μL S30 Premix without amino acids • 4.45 μL pBESTluc™ DNA (1 μg/μL) • 78 μL complete amino acid mixture • 267 μL water
• 20 μL S30 extract, circular • 32 μL S30 Premix without amino acids • 7 μL complete amino acid mixture • 21 μL water

[1] = target: Rabbit Reticulocyte Lysate; experiment: Rabbit Reticulocyte Lysate: inhibition of eukaryotic protein synthesis (luciferase); format: biochemical; settings: 30° C. 90 minutes, read-out: Retic. IC50
Procedure: Inhibition of eukaryotic protein synthesis was determined using the Rabbit Reticulocyte Lysate System, Nuclease-Treated from Promega (catalog #L-4960) with slight modifications to the manufacturer's protocol. Compounds were serial diluted in 0.5 mL microcentrifuge tubes by mixing and transferring 50 μL from the highest concentration to 50 μL of water, mixing and transferring 50 μL of this 2-fold dilution to 50 μL of water. This mixing and transferring was repeated so that there are a total of 8 tubes with serial dilutions of compound at 10× the desired screening concentration that are ultimately diluted to 1× by the addition of rabbit reticulocyte luciferase synthesis mixture. Serial dilutions of compounds were added ([…]) to wells in a black round bottom 96-well plate. Water (2.5 μL) was used as a “no inhibitor” control in 4 wells/plate. No RNA control reaction mixture ([…]; see below) was used as a control in 4 wells/plate for background luminescence. Rabbit reticulocyte luciferase synthesis mixture (22.5 μL; see below) was added to wells with compounds or water mixture and incubated at 30° C. for 90 minutes. Luciferase assay reagent (25 μL) was added with luminescence measured using a BioTek Synergy HTX plate reader. % Inhibition was determined relative to no inhibitor controls.
• 1,000 μL rabbit reticulocyte lysate • 5.7 μL Luciferase Control RNA (1 μg/μL) • 26 μL complete amino acid mixture • 395 μL water
• 70 μL rabbit reticulocyte lysate • 2 μL complete amino acid mixture • 28 μL water

[2] = S. aureus, CAMHB supplemented with sodium bicarbonate 25 mM
[3] = E. coli, CAMHB supplemented with sodium bicarbonate 25 mM
[4] = P. aeruginosa, CAMHB supplemented with sodium bicarbonate 25 mM
[5] = A. baumannii, CAMHB supplemented with sodium bicarbonate 25 mM
[6] = E. faecalis, CAMHB supplemented with sodium bicarbonate 25 mM

CCN(C[C@H]1CC[C@H](n2ccc(NC(=O)N3CCN(C(=O)C(C)(C)N)CC3)nc2=O)CC1)[C@H]1CC[C@H](N)CC1 [Compound 21, 4-(2-Amino-2-methylpropanoyl)-N-(1-(trans-4-(((trans-4-aminocyclohexyl)(ethyl)amino)methyl)cyclohexyl)-2-oxo-1,2-dihydropyrimidin-4-yl)piperazine-1-carboxamide hydrochloride salt]
MIC (S. aureus (Sa)): < 8 µg/mL
MIC (E. coli (Ec)): < 8 µg/mL
MIC (P. aeruginosa (Pa)): 8 to 32 µg/mL
MIC (A. baumannii (Ab)): 8 to 32 µg/mL
MIC (E. faecalis (Ef)): < 8 µg/mL
IC50 (E. coli S30 extract): < 500 nM
IC50 [1]: ≥ 1000 nM

CC(C)(N)C(=O)N1CCN(C(=O)Nc2ccn(C3=CCC(CN4CCCC(N)CC4)CC3)c(=O)n2)CC1 (single isomer, unassigned) [Compound 41, 4-(2-Amino-2-methylpropanoyl)-N-(1-(4-((4-aminoazepan-1-yl)methyl)cyclohex-1-en-1-yl)-2-oxo-1,2-dihydropyrimidin-4-yl)piperazine-1-carboxamide hydrochloride salt]
MIC (S. aureus (Sa)): < 8 µg/mL
MIC (E. coli (Ec)): < 8 µg/mL
MIC (P. aeruginosa (Pa)): > 32 µg/mL
MIC (A. baumannii (Ab)): > 32 µg/mL
MIC (E. faecalis (Ef)): < 8 µg/mL
IC50 (E. coli S30 extract): < 500 nM
IC50 [1]: ≥ 1000 nM

CN(CC1CC=C(n2ccc(NC(=O)N3CCN(C(=O)C(C)(C)N)CC3)nc2=O)CC1)[C@H]1CC[C@H](N)CC1 (stereo partly drawn) [Compound 30, trans-4-(2-Amino-2-methylpropanoyl)-N-(1-(4-(((4-aminocyclohexyl)(methyl)amino)methyl)cyclohex-1-en-1-yl)-2-oxo-1,2-dihydropyrimidin-4-yl)piperazine-1-carboxamide hydrochloride salt]
MIC (S. aureus (Sa)): < 8 µg/mL
MIC (E. coli (Ec)): < 8 µg/mL
MIC (P. aeruginosa (Pa)): > 32 µg/mL
MIC (A. baumannii (Ab)): > 32 µg/mL
MIC (E. faecalis (Ef)): 8 to 32 µg/mL
IC50 (E. coli S30 extract): < 500 nM
IC50 [1]: ≥ 1000 nM

CC(C)(N)C(=O)N1CCN(C(=O)Nc2ccn(C3=CCC(CN4CCC5(CC4)CC(N)C5)CC3)c(=O)n2)CC1 (centres unmarked) [Compound 25, 4-(2-Amino-2-methylpropanoyl)-N-(1-(4-((2-amino-7-azaspiro[3.5]nonan-7-yl)methyl)cyclohexan-1-en-1-yl)-2-oxo-1,2-dihydropyrimidin-4-yl)piperazine-1-carboxamide hydrochloride salt]
MIC (S. aureus (Sa)): < 8 µg/mL
MIC (E. coli (Ec)): < 8 µg/mL
MIC (P. aeruginosa (Pa)): 8 to 32 µg/mL
MIC (A. baumannii (Ab)): < 8 µg/mL
MIC (E. faecalis (Ef)): < 8 µg/mL
IC50 (E. coli S30 extract): < 500 nM
IC50 [1]: ≥ 1000 nM

CC(C)(N)C(=O)N1CCN(C(=O)Nc2ccn(C3CCC(CN4CCC5(N)CC5C4)CC3)c(=O)n2)CC1 (centres unmarked) [Compound 45, 4-(2-Amino-2-methylpropanoyl)-N-(1-(4-((6-amino-3-azabicyclo[4.1.0]heptan-3-yl)methyl)cyclohexyl)-2-oxo-1,2-dihydropyrimidin-4-yl)piperazine-1-carboxamide hydrochloride salt]
MIC (S. aureus (Sa)): < 8 µg/mL
MIC (E. coli (Ec)): < 8 µg/mL
MIC (P. aeruginosa (Pa)): > 32 µg/mL
MIC (A. baumannii (Ab)): > 32 µg/mL
MIC (E. faecalis (Ef)): < 8 µg/mL
IC50 (E. coli S30 extract): < 500 nM
IC50 [1]: ≥ 1000 nM

CC(C)(N)C(=O)N1CCN(C(=O)Nc2ccn(C3=CCC(CN4C[C@@H]5[C@@H](N)[C@@H]5C4)CC3)c(=O)n2)CC1 (single isomer, unassigned) [Compound 33, 4-(2-Amino-2-methylpropanoyl)-N-(1-(4-(((exo)-6-amino-3-azabicyclo[3.1.0]hexan-3-yl)methyl)cyclohex-1-en-1-yl)-2-oxo-1,2-dihydropyrimidin-4-yl)piperazine-1-carboxamide hydrochloride salt]
MIC (S. aureus (Sa); [2]): < 8 µg/mL
MIC (E. coli (Ec); [3]): < 8 µg/mL
MIC (P. aeruginosa (Pa); [4]): > 32 µg/mL
MIC (A. baumannii (Ab); [5]): 8 to 32 µg/mL
MIC (E. faecalis (Ef); [6]): < 8 µg/mL
IC50 (E. coli S30 extract): < 500 nM
IC50 [1]: ≥ 1000 nM

CC(C)(N)C(=O)N1CCN(C(=O)Nc2ccn(C3CCC(CNC4CC5(CC(N)C5)C4)CC3)c(=O)n2)CC1 (centres unmarked) [Compound 53, 4-(2-Amino-2-methylpropanoyl)-N-(1-(4-(((6-aminospiro[3.3]heptan-2-yl)amino)methyl)cyclohexyl)-2-oxo-1,2-dihydropyrimidin-4-yl)piperazine-1-carboxamide hydrochloride salt]
MIC (S. aureus (Sa)): < 8 µg/mL
MIC (E. coli (Ec)): 8 to 32 µg/mL
MIC (P. aeruginosa (Pa)): > 32 µg/mL
MIC (A. baumannii (Ab)): > 32 µg/mL
MIC (E. faecalis (Ef)): 8 to 32 µg/mL
IC50 (E. coli S30 extract): < 500 nM
IC50 [1]: ≥ 1000 nM

CCN(C[C@H]1CC[C@H](n2ccc(N)nc2=O)CC1)[C@H]1CC[C@H](N)CC1 [Compound 54, 4-amino-1-((trans)-4-((((trans)-4-aminocyclohexyl)(ethyl)amino)methyl)cyclohexyl)pyrimidin-2(1H)-one]
MIC (S. aureus (Sa); [2]): > 32 µg/mL
MIC (E. coli (Ec); [3]): > 32 µg/mL
MIC (P. aeruginosa (Pa); [4]): > 32 µg/mL
MIC (A. baumannii (Ab); [5]): > 32 µg/mL
MIC (E. faecalis (Ef); [6]): > 32 µg/mL
IC50 (E. coli S30 extract): ≥ 1000 nM
IC50 [1]: ≥ 1000 nM

CCN(CC1CC=C(n2ccc(NC(=O)N3CCN(C(=O)C(C)(C)N)CC3)nc2=O)CC1)[C@H]1CC[C@H](N)CC1 (stereo partly drawn) [Compound 31, trans-4-(2-Amino-2-methylpropanoyl)-N-(1-(4-(((4-aminocyclohexyl)(ethyl)amino)methyl)cyclohex-1-en-1-yl)-2-oxo-1,2-dihydropyrimidin-4-yl)piperazine-1-carboxamide hydrochloride salt]
MIC (S. aureus (Sa)): < 8 µg/mL
MIC (E. coli (Ec)): < 8 µg/mL
MIC (P. aeruginosa (Pa)): > 32 µg/mL
MIC (E. faecalis (Ef)): < 8 µg/mL
IC50 (E. coli S30 extract): < 500 nM
IC50 [1]: ≥ 1000 nM
